Laboratory results: patent US20260174778A1, “SULFONAMIDE COMPOUND, AND PREPARATION METHOD THEREFOR AND USE THEREOF” (SHANGHAI HENLIUS BIOTECH, INC., priority 2023, published 2026)

Tested on: human breast cancer ZR-75-1 cell xenograft tumor
Assay: Anti-tumor effect in ER+KAT6high breast cancer cell xenograft tumor model (Test Example 5)
Assay type: in vivo, Balb/c nude mice
Conditions: for T/C / TGI / mean tumor volume: day 35; for body weight changes compared to the PF-8144 group: all doses (0.01, 0.1, 2 mg/kg)
Protocol: Test Example 5: Anti-Tumor Effects of Test Compounds in ER^+KAT6^high Breast Cancer Cell-Xenograft Tumor Model
Assay method: ZR-75-1 cells were subcutaneously inoculated into the right back of each mouse to evaluate the efficacy of the compounds in the subcutaneous xenograft tumor model of ZR-75-1 cells.
• 1. Cell culture: ZR-75-1 cells were cultured as a monolayer in vitro under the following culture conditions: an RPMI 1640 medium supplemented with 10% fetal bovine serum and 1% Anti-anti (Antibiotic-Antimycotic), incubated in an incubator at 37° C. with 5% CO2. The cells were digested with trypsin-EDTA twice a week for passaging as per conventional practice. When the cell saturation reached 80%-90% and the quantity met the requirement, the cells were harvested, counted, and inoculated. • 2. Animals: Balb/c nude mice, female, 6-8 weeks old, weighing 18-22 g. A total of 128 mice were required (80 mice were enrolled). They were provided by Vital River. • 3. Tumor inoculation: Two days before tumor inoculation, 17-beta estradiol tablets (0.18 mg) were subcutaneously administered, and 10 million ZR-75-1 tumor cells+matrigel (total […]) were subcutaneously inoculated into the right back of each mouse. When the mean tumor volume reached about 137 mm^3, the mice were grouped for administration. • 4. Experimental administration: The compounds were dissolved in 5% DMSO+5% Tween 80+90% Saline, and administered intragastrically (PO) daily for five weeks. • 5. Experimental indicators: The experimental indicators were to investigate whether the tumor growth was inhibited or delayed or the tumor was cured. Tumor diameters were measured twice weekly using a vernier caliper. The tumor volume was calculated using the following formula: V=0.5a×b^2, where a and b represent the long diameter and short diameter of the tumor, respectively. • 6. The anti-tumor efficacy of the compounds was evaluated by TGI (%) or relative tumor proliferation rate T/C (%). TGI (%) refers to the tumor growth inhibition rate. Calculation of TGI (%):TGI (%)=[(1−(mean tumor volume at the end of administration in a treatment group—mean tumor volume at the start of administration in the treatment group))/(mean tumor volume at the end of treatment in the solvent control group—mean tumor volume at the start of treatment in the solvent control group)]×100%. The calculation formula for the relative tumor proliferation rate T/C (%) was as follows: T/C %=TRTV/CRTV×100% (TRTV:RTV of the treatment group; CRTV:RTV of the negative control group). The relative tumor volume (RTV) was calculated based on the tumor measurement results using the following formula: RTV=Vt/V0, where V0 represents the mean tumor volume measured at the time of grouping for administration (i.e., PG-D0), and Vt represents the mean tumor volume at a certain measurement. TRTV and CRTV were derived from data measured on the same day.
The mean and standard error of mean (SEM) of tumor volume at each time point for each group were included. The differences in tumor volume and tumor weight among the groups were statistically analyzed. For comparisons among three or more groups, one-way ANOVA was used for analysis. […] The analysis was performed using SPSS 17.0, and p<0.05 was considered to indicate a significant difference.
For comparisons between different doses of the same drug or different drugs at the same dose, two-way ANOVA was used for analysis, and the Bonferroni method was applied for testing. The analysis was performed using GraphPad Prism 9.0, and p<0.05 was considered to indicate a significant difference. On day 35 after the start of administration, the data between different doses of the same drug or different drugs at the same dose were analyzed using one-way ANOVA. […] The analysis was performed using SPSS 17.0, and p<0.05 was considered to indicate a significant difference.

SMILES	T/C (0.01 mg/kg PO QD)	TGI (0.01 mg/kg PO QD)	mean tumor volume (0.01 mg/kg PO QD)	T/C (0.1 mg/kg PO QD)	TGI (0.1 mg/kg PO QD)	mean tumor volume (0.1 mg/kg PO QD)	T/C (2 mg/kg PO QD)	TGI (2 mg/kg PO QD)	mean tumor volume (2 mg/kg PO QD)	efficacy compared to PF-8144 (0.1 mg/kg PO QD)	body weight changes compared to the PF-8144 group
COc1ccccc1S(=O)(=O)Nc1noc2cc(Cn3cccn3)cc(OC)c12 [PF-8144, reference compound]	72.71%	30.19%	1,035 mm^3	40.77%	65.53%	580 mm^3	2.51%	107.85%	36 mm^3		
COc1ccc2c(c1S(=O)(=O)Nc1noc3cc(Cn4cccn4)c(F)c(OC)c13)OCCO2 [Compound 28, N-(6-((1H-Pyrazol-1-yl)methyl)-5-fluoro-4-methoxybenzo[d]isoxazol-3-yl)-6-methoxy-2,3-dihydrobenzo[b][1,4]dioxine-5-sulfonamide]	76.14%	30.94%	1,017 mm^3	11.36%	98.07%	162 mm^3	0.84%	109.69%	12 mm^3	significantly superior in efficacy to PF-8144	no statistically significant difference
COc1ccc2c(c1S(=O)(=O)Nc1noc3cc(Cn4cccn4)c(F)c(OC)c13)OCC=C2 [Compound 101, N-(6-((1H-Pyrazol-1-yl)methyl)-5-fluoro-4-methoxybenzo[d]isoxazol-3-yl)-7-methoxy-2H-chromene-8-sulfonamide]	19.06%	89.81%	264 mm^3	1.79%	108.64%	25 mm^3	0.96%	109.56%	14 mm^3	significantly superior in efficacy to PF-8144	no statistically significant difference
